Measurements reported in patent US20090131354A1, “miR-126 REGULATED GENES AND PATHWAYS AS TARGETS FOR THERAPEUTIC INTERVENTION” (priority 2007, published 2009).

Legend:
[1] = system: Du145 prostate cancer cells; test: Alamar Blue proliferation assay, Du145; format: cell-based, human; details: 30 nM, normalized to negative control miRNA (100% proliferation)
From the text: (§1) The inventors assessed the therapeutic effect of hsa-miR-126 for prostate cancer by using 4 individual human prostate cancer cell lines. To measure cellular proliferation of prostate cancer cells, the following prostate cancer cell lines were used: PPC-1, derived from a bone metastasis; Du145, derived from a brain metastasis; RWPE2, derived from prostate cells immortalized by human papillomavirus 18 and transformed by the K-RAS oncogene; and LNCaP, derived from a lymph node metastasis (Stone et al., 1978; Horoszewicz et al., 1980; Brothman et al., 1991; Pretlow et al., 1993; Bello et al., 1997). PPC-1 and Du145 cells lack expression of the prostate-specific antigen (PSA) and are independent of androgen receptor (AR) signaling. In contrast, RWPE2 and LNCaP cells test positive for PSA and AR. Cells were transfected with synthetic hsa-miR-126 (Pre-miR™-hsa-miR-126, Ambion cat. no. AM 17100) or negative control miRNA (NC; Pre-miR™ microRNA Precursor Molecule-Negative Control #2; Ambion cat. no. AM17111) in a 96-well format using a lipid-based transfection reagent. […] Proliferation was assessed 4-7 days post-transfection using Alamar Blue™ (Invitrogen) following the manufacturer's instructions. […] Fluorescent light units (FLU) were measured after 3 hours, normalized to the control, and plotted as percent change in proliferation. […]

[2] = system: MCF12A, BT549, TE353SK, 22Rv1, A549, CRL-5826, HTB-57 cells; details: cited from earlier work
[3] = system: PPC-1 prostate cancer cells; test: Alamar Blue proliferation assay, PPC-1; format: cell-based, human; details: PPC-1 cells, 30 nM, normalized to negative control miRNA (100% proliferation)
From the text: as §1

[4] = system: PC3 prostate cancer cells; test: Long-term growth curve with repeated electroporation, PC3; format: cell-based, human
From the text: (§2) To evaluate the therapeutic activity of hsa-miR-126 over an extended period of time, we conducted growth curve experiments in the presence of miRNA for up to 21 days. Since in vitro transfections of naked interfering RNAs, such as synthetic miRNA, are transient by nature and compromised by the dilution of the oligonucleotide during ongoing cell divisions, we administered miRNA at multiple time points (Bartlett and Davis, 2006; Bartlett and Davis, 2007). To accommodate miRNA delivery into a large quantity of cells, we employed the electroporation method to delivery hsa-miR-126 or negative control miRNA into PPC-1, PC3 and Du145 human prostate cancer cells. Briefly, 1×10^6 PPC-1 or PC3 cells, and 0.5×10^6 Du145 cells were electroporated with 1.6 μM hsa-miR-126 or negative control using the BioRad Gene Pulser Xcell™ instrument (BioRad Laboratories Inc., Hercules, Calif., USA), seeded and propagated in regular growth medium. Experiments with PC3 and Du145 cells were carried out in triplicates. When the control cells reached confluence (days 4 and 11 for PPC-1; days 7 and 14 for PC3 and Du145), cells were harvested, counted and electroporated again with the respective miRNAs. […] The population doubling was calculated from these electroporation events using the formula PD=ln(Nf/N0)/ln2, and cell counts were extrapolated and plotted on a linear scale (FIGS. 10-12). […]

[5] = system: prostate cancer cells PPC-1, Du145, LNCaP and RWPE2; test: Alamar Blue proliferation assay, all prostate cancer cell lines tested; format: cell-based, human
From the text: as §1

[6] = system: established H460 lung tumors; test: Established H460 lung tumors, intratumoral injections; format: in vivo, NOD/SCID mice; details: H460, 6.25 μg intratumoral with siPORT amine on days 11, 14, 17
From the text: Delivery of hsa-miR-126 into human lung cancer cells prior to implantation into the animal inhibited the formation of lung tumor xenografts. […] To explore this possibility, each 3×10^6 human H460 non-small lung cancer cells were mixed with BD Matrigel™, (BD Biosciences; San Jose, Calif., USA; cat. no. 356237) in a 1:1 ratio and subcutaneously injected into the lower back of 23 NOD/SCID mice (Charles River Laboratories, Inc.; Wilmington, Mass., USA). Once animals developed palpable tumors (day 11 post xenograft implantation), a group of six animals received intratumoral injections of each 6.25 μg hsa-miR-126 (Dharmacon, Inc., Lafayette, Colo., USA) formulated with the lipid-based siPORT™ amine delivery agent (Ambion, Austin, Tex.; cat. no. AM4502) on days 11, 14 and 17. A control group of six animals received intratumoral injections of each 6.25 μg negative control miRNA (NC; Dharmacon, Lafayette, Colo.), following the same injection schedule that was used for hsa-miR-126. Given an average mouse weight of 20 g, this dose equals 0.3125 mg/kg. […] Caliper measurements were taken every 1-2 days, and tumor volumes were calculated using the formula, Volume=length×width×width/2, in which the length is greater than the width.

[7] = system: LNCaP prostate cancer cells; test: Alamar Blue proliferation assay, LNCaP; format: cell-based, human; details: 30 nM, normalized to negative control miRNA (100% proliferation)
From the text: as §1

[8] = system: PPC-1 prostate cancer cells; test: Long-term growth curve with repeated electroporation, PPC-1; format: cell-based, human
From the text: as §2

Substance: hsa-miR-126 (UCGUACCGUGAGUAAUAAUGC; synthetic pre-miR form, further chemistry not given here) [Synthetic hsa-miR-126 (Pre-miR™-hsa-miR-126, Ambion cat. no. AM17100)]
- % proliferation [1]: 63.41%
- effect on proliferation [2]: decreasing proliferation
- % proliferation [3]: 71.89%
- inhibition of cell growth ([4]; PC3, day 21, 1.6 μM repeated electroporation, relative to control cells (100%)): 90.7%
- remaining cells ([4]; PC3, day 21, relative to control cells (100%)): 9.3%
- average inhibition of cellular proliferation ([5]; average of PPC-1, Du145, LNCaP, RWPE2, 30 nM): 23.07%
- growth-inhibitory activity compared with siEg5 ([5]; prostate cancer cell lines, 30 nM): comparable to that of Eg5-directed siRNA
- growth of established tumors [6]: robustly inhibited growth of established H460 lung tumors
- % proliferation [7]: 80.59%
- inhibition of cell growth ([8]; PPC-1, day 18, 1.6 μM repeated electroporation, relative to control cells (100%)): 91.3%
- remaining cells ([8]; PPC-1, day 18, relative to control cells (100%)): 8.7%
